Test results from paper PMC10305119, “Analogs of 6-Bromohypaphorine with Increased Agonist Potency for α7 Nicotinic Receptor as Anti-Inflammatory Analgesic Agents” (Marine Drugs, 2023).

Tests used:
MIA-induced arthritis = test: Monoiodoacetate-induced arthritis model, histological study of the knee joint; type: in vivo, female rats; details: 15th day, scale 0-5, n = 4
From the text: After the experiment termination and euthanasia of the experimental animals, biomaterials were taken for histological examination. Soft tissues around the right knee joint were excised as much as possible. Femur, tibia, and fibula were cut across in the middle of the diaphysis closer to the corresponding articular surfaces. The joint was fixed in a 10% solution of neutral formalin for seven days, washed in running water and then decalcified in Trilon B for 7–14 days. After satisfactory decalcification of the bone and cartilage tissue, the joint was cut in the sagittal plane. The diaphysis of the tubular bones was shortened to the border of 2–3 mm from the metaepiphyseal cartilage. In this form, the biomaterial was repeatedly washed in running water, dehydrated in alcohols of ascending concentration, and embedded in paraffin. Paraffin sections 5–7 μm thick were stained with hematoxylin and eosin and examined using conventional light microscopy. During histological analysis, the following morphological signs were assessed: inflammatory infiltration of the synovial membrane (synovitis), synovial hyperplasia, destructive changes in the articular cartilage, and destructive changes in bone tissue (if any). The following scale was used to assess the severity of a particular morphological trait: 0 points—within normal limits, 1—minimal severity, 2—weak, 3—medium (moderate), 4—strong, 5—very strong.
Four groups of animals were formed: control and three groups with modelling of inflammation by introducing monoiodoacetate (MIA). Three groups of animals were injected with 3 mg MIA in 50 μL of 0.9% sodium chloride through the patellar ligament into the intra-articular space of the right knee using a 29-G needle. Control rats received an equivalent volume of 0.9% sodium chloride.

[1] = test system: myocardial infarction model; set-up: method as in PMID 35538277; details: cited from earlier work
ERK 1/2 phosphorylation = test: ERK1/2 phosphorylation in LPS-stimulated macrophages (flow cytometry); type: cell-based, human; details: compound 1 h, then LPS 3 h; control MFI 194; listed as 6ID
Experimental: To gain an insight into the signaling induced by the tested compounds, ERK1/2 and STAT3 phosphorylation was checked. Macrophages were treated with tested compounds for 1 h, after which they were stimulated with LPS for 3 h.
Peripheral blood mononuclear cells (PBMCs) were separated by Ficoll-Paque PLUS density gradient centrifugation. PBMCs were placed in a sterile Petri dish and incubated at 37 °C for 2 h. Unattached cells were then removed by washing with PBS and substituted with fresh complete RPMI 1640 medium. To generate monocyte-derived macrophages (MDMs), 50 ng/mL GM-CSF was added to the isolated monocytes and cultured for 6 days to differentiate them into non-polarized MDMs.
Figure 5 Effects of the analyzed compounds on signaling pathways in LPS-stimulated macrophages. Cells were treated with PNU 282987, hypaphorine, or 6-iodohypaphorine methyl ester (6ID) for 1 h and then stimulated with LPS for 3 h. Phosphorylated ERK1/2 and STAT3 were quantified by flow cytometry with specific antibodies. […] (c): Representative histogram showing the increase in ERK 1/2 phosphorylation in comparison to control. The numbers in the histograms show the MFI ± SD (n = 3). MFI—geometrical mean fluorescence intensity. One-way ANOVA tests with Tukey post hoc test: * p ˂ 0.05, ** p ˂ 0.01, *** p < 0.001 in comparison with untreated cells. […]

COC(=O)C(Cc1c[nH]c2cc([N+](=O)[O-])ccc12)[N+](C)(C)C (centres unmarked) [Compound 5, methyl ester of 6-nitrohypaphorine]
Destructive Changes in the Distal Epiphyseal Cartilage of the Femur, Max score (MIA-induced arthritis; 0.05 mg/kg intramuscular): 3.0 | Destructive Changes in the Distal Epiphyseal Cartilage of the Femur, Me (average) score (MIA-induced arthritis; 0.05 mg/kg intramuscular): 3.0 | Destructive Changes in the Distal Epiphyseal Cartilage of the Femur, Min score (MIA-induced arthritis; 0.05 mg/kg intramuscular): 3.0 | Destructive Changes in the Proximal Epiphyseal Cartilage of the Tibia, Max score (MIA-induced arthritis; 0.05 mg/kg intramuscular): 4.0 | Destructive Changes in the Proximal Epiphyseal Cartilage of the Tibia, Me (average) score (MIA-induced arthritis; 0.05 mg/kg intramuscular): 3.5 | Destructive Changes in the Proximal Epiphyseal Cartilage of the Tibia, Min score (MIA-induced arthritis; 0.05 mg/kg intramuscular): 3.0 | Inflammatory Infiltration of the Synovium, Max score (MIA-induced arthritis; 0.05 mg/kg intramuscular): 4.0 | Inflammatory Infiltration of the Synovium, Me (average) score (MIA-induced arthritis; 0.05 mg/kg intramuscular): 3.75 | Inflammatory Infiltration of the Synovium, Min score (MIA-induced arthritis; 0.05 mg/kg intramuscular): 3.0 | Synovial Hyperplasia, Max score (MIA-induced arthritis; 0.05 mg/kg intramuscular): 3.0 | Synovial Hyperplasia, Min score (MIA-induced arthritis; 0.05 mg/kg intramuscular): 2.0 | Synovial Hyperplasia, Me (average) score (MIA-induced arthritis; 0.05 mg/kg intramuscular, listed as 6ND): 2.25 | Destructive Changes in the Distal Epiphyseal Cartilage of the Femur, Max score (MIA-induced arthritis; 0.26 mg/kg intramuscular): 3.0 | Destructive Changes in the Distal Epiphyseal Cartilage of the Femur, Me (average) score (MIA-induced arthritis; 0.26 mg/kg intramuscular): 3.0 | Destructive Changes in the Distal Epiphyseal Cartilage of the Femur, Min score (MIA-induced arthritis; 0.26 mg/kg intramuscular): 3.0 | Destructive Changes in the Proximal Epiphyseal Cartilage of the Tibia, Max score (MIA-induced arthritis; 0.26 mg/kg intramuscular): 4.0 | Destructive Changes in the Proximal Epiphyseal Cartilage of the Tibia, Me (average) score (MIA-induced arthritis; 0.26 mg/kg intramuscular): 3.5 | Destructive Changes in the Proximal Epiphyseal Cartilage of the Tibia, Min score (MIA-induced arthritis; 0.26 mg/kg intramuscular): 3.0 | Inflammatory Infiltration of the Synovium, Max score (MIA-induced arthritis; 0.26 mg/kg intramuscular): 3.0 | Inflammatory Infiltration of the Synovium, Me (average) score (MIA-induced arthritis; 0.26 mg/kg intramuscular): 2.5 | Inflammatory Infiltration of the Synovium, Min score (MIA-induced arthritis; 0.26 mg/kg intramuscular): 2.0 | Synovial Hyperplasia, Max score (MIA-induced arthritis; 0.26 mg/kg intramuscular): 2.0 | Synovial Hyperplasia, Me (average) score (MIA-induced arthritis; 0.26 mg/kg intramuscular): 1.5 | Synovial Hyperplasia, Min score (MIA-induced arthritis; 0.26 mg/kg intramuscular): 1.0 | effect in myocardial infarction model [1]: significant positive effect

COC(=O)[C@@H](Cc1c[nH]c2cc(I)ccc12)[N+](C)(C)C [Compound 1, (D)-6-iodohypaphorine methyl ester]
ERK 1/2 phosphorylation, MFI (ERK 1/2 phosphorylation): 274
